Results published in US11497212B2, “Substituted thiophenyl uracils, salts thereof and the use thereof as herbicidal agents” (Syngenta Crop Protection AG, priority 2017, dated 2022).

Tests used:
Type in all cases: in vivo
Matricaria inodora = assay: Herbicidal action post-emergence (greenhouse pot trial); conditions: application rate 20 g/ha, scored visually after about 3 weeks vs untreated controls
Description: (§1) Seeds of mono- and dicotyledonous weed plants and crop plants are laid out in sandy loam soil in plastic or wood-fiber pots, covered with earth and grown under controlled growth conditions in a greenhouse. 2 to 3 weeks after sowing, the trial plants are treated at the one-leaf stage. The compounds of the invention formulated in the form of wettable powders (WP) or emulsion concentrates (EC) were then sprayed onto the green parts of the plant as an aqueous suspension or emulsion with addition of 0.5% additive at a water application rate equivalent to 600 L/ha. After the trial plants had stood for about 3 weeks in the greenhouse, under optimal growth conditions, the effect of the preparations was scored visually by comparison with untreated controls. For example, 100% efficacy=plants have died, 0% efficacy=like control plants. Tables A1 to A15 below show the efficacies of selected compounds of the general formula (I) according to tables I.1 to I.60 on various harmful plants and an application rate corresponding to 80 g/ha or lower that were obtained by the aforementioned trial method.

Veronica persica = assay: as above; conditions: application rate 20 g/ha
Description: as §1

Digitaria sanguinalis = assay: as above; conditions: application rate 20 g/ha
Description: as §1

Pharbitis purpurea = assay: as above; conditions: application rate 20 g/ha
Description: as §1

Polygonum convolvulus = assay: as above; conditions: application rate 20 g/ha, scored visually after about 3 weeks vs untreated controls
Description: as §1

Stellaria media = assay: as above; conditions: application rate 20 g/ha, scored visually after about 3 weeks vs untreated controls
Description: as §1

Amaranthus retroflexus = assay: as above; conditions: application rate 20 g/ha, scored visually after about 3 weeks vs untreated controls
Description: as §1

Abutilon theophrasti = assay: as above; conditions: application rate 20 g/ha, scored visually after about 3 weeks vs untreated controls
Description: as §1

Viola tricolor = assay: as above; conditions: application rate 20 g/ha
Description: as §1

Alopecurus myosuroides = assay: as above; conditions: application rate 20 g/ha, scored visually after about 3 weeks vs untreated controls
Description: as §1

Triticum aestivum = assay: Crop compatibility post-emergence (greenhouse pot trial)
Description: as §1, with “plants.” for “plants. Tables A1 to A15 below show the efficacies of selected compounds of the general formula (I) according to tables I.1 to I.60 on various harmful plants and an application rate corresponding to 80 g/ha or lower that were obtained by the aforementioned trial method.”
(§2) Crop plant compatibilities were also scored correspondingly.
(§3) The effects observed are reported here on selected crop plants by comparison with the untreated controls (values in %).

Oryza sativa = assay: as above; conditions: application rate 20 g/ha
Description: as §1, with “plants.” for “plants. Tables A1 to A15 below show the efficacies of selected compounds of the general formula (I) according to tables I.1 to I.60 on various harmful plants and an application rate corresponding to 80 g/ha or lower that were obtained by the aforementioned trial method.”
as §2, §3

Setaria viridis = assay: Herbicidal action post-emergence (greenhouse pot trial); conditions: application rate 20 g/ha, scored visually after about 3 weeks vs untreated controls
Description: as §1

Zea mays = assay: Crop compatibility post-emergence (greenhouse pot trial); conditions: application rate 5 g/ha
Description: as §1, with “plants.” for “plants. Tables A1 to A15 below show the efficacies of selected compounds of the general formula (I) according to tables I.1 to I.60 on various harmful plants and an application rate corresponding to 80 g/ha or lower that were obtained by the aforementioned trial method.”
as §2, §3

Echinochloa crus-galli = assay: Herbicidal action post-emergence (greenhouse pot trial); conditions: application rate 20 g/ha, scored visually after about 3 weeks vs untreated controls
Description: as §1

| SMILES | Triticum aestivum (Efficacy in %) (Triticum aestivum; application rate 20 g/ha) | Oryza sativa (Efficacy in %) (Oryza sativa) | Zea mays (Efficacy in %) (Zea mays) | Triticum aestivum (Efficacy in %) (Triticum aestivum; application rate 5 g/ha) | Matricaria inodora (Efficacy in %) (Matricaria inodora) | Veronica persica (Efficacy in %) (Veronica persica) | Digitaria sanguinalis (Efficacy in %) (Digitaria sanguinalis) | Pharbitis purpurea (Efficacy in %) (Pharbitis purpurea) | Polygonum convolvulus (Efficacy in %) (Polygonum convolvulus) | Stellaria media (Efficacy in %) (Stellaria media) | Amaranthus retroflexus (Efficacy in %) (Amaranthus retroflexus) | Abutilon theophrasti (Efficacy in %) (Abutilon theophrasti) | Viola tricolor (Efficacy in %) (Viola tricolor) | Alopecurus myosuroides (Efficacy in %) (Alopecurus myosuroides) | Setaria viridis (Efficacy in %) (Setaria viridis) | Echinochloa crus-galli (Efficacy in %) (Echinochloa crus-galli) |
| --- | --- | --- | --- | --- | --- | --- | --- | --- | --- | --- | --- | --- | --- | --- | --- | --- |
| CCC(Sc1cc(-n2c(=O)c(C)c(C(F)(F)F)n(C)c2=O)c(F)cc1Cl)C(=O)OCC1CCCO1 (centres unmarked) [I.12-71] | – | 0% | 0% | 0% | 80% | 100% | – | 100% | 80% | 100% | 100% | 100% | 100% | – | – | 100% |
| COC(C)COC(=O)C(C)Sc1cc(-n2c(=O)cc(C(F)(F)F)n(C)c2=O)c(F)cc1Cl (centres unmarked) [I.1-51] | 20% | – | – | – | 100% | 100% | 100% | 100% | 100% | 80% | 100% | 100% | 100% | 80% | 100% | 100% |
| COCCNC(=O)C(C)Sc1cc(-n2c(=O)cc(C(F)(F)F)n(C)c2=O)c(F)cc1Cl (centres unmarked) [I.1-151] | – | 20% | 20% | 20% | 100% | 100% | 80% | 100% | 100% | 100% | 100% | 100% | 100% | – | 100% | – |

More lines, main results first:

| Triticum aestivum (Efficacy in %) (Triticum aestivum; application rate 20 g/ha) | Oryza sativa (Efficacy in %) (Oryza sativa) | Zea mays (Efficacy in %) (Zea mays) | Triticum aestivum (Efficacy in %) (Triticum aestivum; application rate 5 g/ha) | SMILES | Matricaria inodora (Efficacy in %) (Matricaria inodora) | Veronica persica (Efficacy in %) (Veronica persica) | Digitaria sanguinalis (Efficacy in %) (Digitaria sanguinalis) | Pharbitis purpurea (Efficacy in %) (Pharbitis purpurea) | Polygonum convolvulus (Efficacy in %) (Polygonum convolvulus) | Stellaria media (Efficacy in %) (Stellaria media) | Amaranthus retroflexus (Efficacy in %) (Amaranthus retroflexus) | Abutilon theophrasti (Efficacy in %) (Abutilon theophrasti) | Viola tricolor (Efficacy in %) (Viola tricolor) | Alopecurus myosuroides (Efficacy in %) (Alopecurus myosuroides) | Setaria viridis (Efficacy in %) (Setaria viridis) | Echinochloa crus-galli (Efficacy in %) (Echinochloa crus-galli) |
| --- | --- | --- | --- | --- | --- | --- | --- | --- | --- | --- | --- | --- | --- | --- | --- | --- |
| 0% | 0% | – | – | Cn1c(C(F)(F)F)cc(=O)n(-c2cc(SCC(C)(C)C(=O)OC3CCOC3)c(Cl)cc2F)c1=O (centres unmarked) [I.48-121] | 100% | 100% | 80% | 100% | 100% | 80% | 100% | 100% | 100% | 80% | – | – |
| 0% | 10% | 10% | – | Cn1c(C(F)(F)F)cc(=O)n(-c2cc(SCC(C)(C)C(=O)OCC3CCCOC3)c(Cl)cc2F)c1=O (centres unmarked) [I.48-92, Tetrahydro-2H-pyran-3-ylmethyl 3-({2-chloro-4-fluoro-5-[3-methyl-2,6-dioxo-4-(trifluoromethyl)-3,6-dihydropyrimidin-1(2H)-yl]phenyl}sulfanyl)-2,2-dimethylpropanoate] | – | 100% | – | – | 80% | 100% | 100% | 100% | 100% | – | 100% | – |
| – | – | – | 20% | CCC(Sc1cc(-n2c(=O)cc(C(F)(F)F)n(C)c2=O)c(F)cc1Cl)C(=O)OCC1CCCCO1 (centres unmarked) [I.2-91, Tetrahydro-2H-pyran-2-ylmethyl 2-({2-chloro-4-fluoro-5-[3-methyl-2,6-dioxo-4-(trifluoromethyl)-3,6-dihydropyrimidin-1(2H)-yl]phenyl}sulfanyl)butanoate] | 100% | 100% | – | 100% | 100% | 80% | 100% | 100% | 100% | 90% | 100% | 100% |
| – | – | – | 20% | CCC(Sc1cc(-n2c(=O)cc(C(F)(F)F)n(C)c2=O)c(F)cc1Cl)C(=O)OCC1CCCOC1 (centres unmarked) [I.2-92, Tetrahydro-2H-pyran-3-ylmethyl 2-({2-chloro-4-fluoro-5-[3-methyl-2,6-dioxo-4-(trifluoromethyl)-3,6-dihydropyrimidin-1(2H)-yl]phenyl}sulfanyl)butanoate] | 100% | 100% | 100% | 100% | 100% | 100% | 100% | 100% | 100% | 80% | 100% | 100% |
| 0% | 0% | – | – | Cn1c(C(F)(F)F)cc(=O)n(-c2cc(SCC(C)(C)C(=O)OCC3CCOCC3)c(Cl)cc2F)c1=O [I.48-93] | – | 100% | – | 100% | 80% | 100% | 100% | 100% | 100% | 80% | – | – |
